{"source": "patent US20210315249A1", "about": "“Cannabis-Infused Product with Controlled Cannabinoid Profile User Experience” (HEXO […]., priority 2018, published 2021)", "origin": "cited, not measured here", "key": {"[1]": {"settings": "dogs; emulsion droplet size 119 nm or 52 nm"}, "[2]": {"settings": "rats; solution in MCT oil or emulsion with droplet size 160 nm or 710 nm"}}, "note": "Read-outs that look alike come from different tables or passages of the source.", "data": [{"smiles": "CCCCN(CCCC)CCC(O)c1cc2c(Cl)cc(Cl)cc2c2cc(C(F)(F)F)ccc12", "note": "(centres unmarked) [halofantrine]", "values": [{"measurement": "bioavailability", "setting": "[1]", "result": "comparable bioavailability"}]}, {"smiles": "COc1nc(C(Cl)(Cl)Cl)c(Cl)c(OC)c1Cl", "note": "[penclomedine]", "values": [{"measurement": "bioavailability", "setting": "[2]", "result": "comparable bioavailability"}]}]}
